Where two headings read alike, the source gives them in different places.
Legend:
[1] = biological target: recombinant PfPP1 (Plasmodium falciparum, UniProt Q8ILV1); assay: biochemical; assay type: biochemical
[2] = system: PP2A; conditions: read-out: characteristic IC50; cited from earlier work
[3] = system: PP1; conditions: cited from earlier work
[4] = system: PP2B; conditions: cited from earlier work
[5] = system: other phosphatases; conditions: cited from earlier work
[6] = read-out: IC50 for inhibition of PfPP1

`[F-].[Na+]` [NaF] gave an IC50 ([1]; read-out: IC50 for inhibition of PfPP1, recombinant PfPP1, data not shown) of 2500 µM.
For `C=C1[C@@H](O)[C@@H]2O[C@]3(CC[C@H](/C=C/[C@@H](C)[C@@H]4CC(C)=C[C@@]5(O[C@H](C[C@@](C)(O)C(=O)O)CC[C@H]5O)O4)O3)CC[C@H]2O[C@@H]1[C@@H](O)C[C@H](C)[C@H]1O[C@@]2(CCCCO2)CC[C@H]1C` [OA, okadaic acid], the IC50 [1] is given as 0.1 µM, the IC50 [2] is given as 0.001 to 0.005 µM and the IC50 ([3]; read-out: characteristic IC50) is given as 0.02 to 0.08 µM. For the same molecule, the “sensitivity of PP2B to toxin” value [4] was “highly resistant”.
Molecule `O=P(O)(O)O` [inorganic orthophosphate] has an IC50 [1, 6] of 10000 µM.
For `O=P(O)(O)OP(=O)(O)O` [pyrophosphate], the IC50 [1, 6] was 90 µM.
In the case of `CO[C@H]([C@H](O)CC(=O)[C@@H](C)[C@@H](O)CC[C@@H](C)[C@@H]1O[C@]2(CC[C@@H](C)[C@H](CC[C@H](C)C(C)=O)O2)CC[C@@H]1C)[C@H](OC(=O)C[C@@H](O)C1=C(C)C(=O)OC1=O)C(C)C` [tautomycin], the IC50 [1] is listed as 0.0008 µM, the “effect on PP1 versus PP2A” value ([3]; PP1 and PP2A compared) is listed as “nearly equally” and the “inhibition of other phosphatases” value [5] is listed as “fails to inhibit”.

Source: PMC111503 (Malaria Journal, 2002)
